Results: paper PMC5218480 (PLoS ONE, 2017)

System: MV-4-11 cells
Assay: Gene expression microarray analysis (Affymetrix PrimeView) and GSEA
Type: cell-based, human
Design: RFU PODN (11730768_x_at) / Fold change /veh PODN (11730768_x_at) / RFU LINC00158 (11744669_a_at) / Fold change /veh LINC00158 (11744669_a_at) / RFU DUSP10 (11751237_a_at) / Fold change /veh DUSP10 (11751237_a_at) / RFU ID3 (11757404_x_at) / Fold change /veh ID3 (11757404_x_at) / RFU PLEKHG5 (11737974_s_at) / Fold change /veh PLEKHG5 (11737974_s_at) / RFU LRRC4B (11730491_at) / Fold change /veh LRRC4B (11730491_at) / RFU GIMAP4 (11747438_a_at) / Fold change /veh GIMAP4 (11747438_a_at) / RFU KRT8 (11758183_x_at) / Fold change /veh KRT8 (11758183_x_at) / RFU CNN1 (11734310_a_at) / Fold change /veh CNN1 (11734310_a_at) / RFU VPS37D (11726825_at) / Fold change /veh VPS37D (11726825_at) / RFU C10orf10 (11716522_x_at) / Fold change /veh C10orf10 (11716522_x_at) / RFU KIR2DL2 /// KIR2DL4 /// KIR2DL5A /// KIR2DL5B /// KIR2DS1 /// KIR2DS2 /// KIR2DS3 /// KIR2DS4 /// KIR3DL3 /// KIR3DL3 /// KIR3DS1 (11738374_at) / Fold change /veh KIR2DL2 /// KIR2DL4 /// KIR2DL5A /// KIR2DL5B /// KIR2DS1 /// KIR2DS2 /// KIR2DS3 /// KIR2DS4 /// KIR3DL3 /// KIR3DL3 /// KIR3DS1 (11738374_at) / RFU C1QL1 (11718748_at) / Fold change /veh C1QL1 (11718748_at) / RFU TMPRSS4 (11747572_a_at) / Fold change /veh TMPRSS4 (11747572_a_at) / RFU HAMP (11756126_x_at) / Fold change /veh HAMP (11756126_x_at) / RFU RNFT2 (11725882_a_at) / Fold change /veh RNFT2 (11725882_a_at) / RFU NR4A2 (11747474_a_at) / Fold change /veh NR4A2 (11747474_a_at) / RFU ABCC12 (11746883_a_at) / Fold change /veh ABCC12 (11746883_a_at) / RFU TMEM136 (11760407_x_at) / Fold change /veh TMEM136 (11760407_x_at) / RFU CLDN22 /// WWC2 (11732394_at) / Fold change /veh CLDN22 /// WWC2 (11732394_at) / RFU HLA-DPB1 (11760878_x_at) / Fold change /veh HLA-DPB1 (11760878_x_at) / RFU SPINT1 (11716480_a_at) / Fold change /veh SPINT1 (11716480_a_at) / RFU GAP43 (11754022_s_at) / Fold change /veh GAP43 (11754022_s_at) / RFU A4GNT (11735810_at) / Fold change /veh A4GNT (11735810_at) / RFU PRB3 (11715151_x_at) / Fold change /veh PRB3 (11715151_x_at) / RFU TUBB4B (11761932_at) / Fold change /veh TUBB4B (11761932_at) / RFU CAPN14 (11732068_a_at) / Fold change /veh CAPN14 (11732068_a_at) / RFU TMCC2 (11721928_a_at) / Fold change /veh TMCC2 (11721928_a_at) / RFU IRGQ (11745062_a_at) / Fold change /veh IRGQ (11745062_a_at) / RFU FAM174B (11720279_a_at) / Fold change /veh FAM174B (11720279_a_at) / RFU TMPRSS4 (11748680_a_at) / Fold change /veh TMPRSS4 (11748680_a_at) / RFU FAM212B (11763350_a_at) / Fold change /veh FAM212B (11763350_a_at) / RFU PLEKHG5 (11743358_a_at) / Fold change /veh PLEKHG5 (11743358_a_at) / RFU ZSCAN30 (11745921_a_at) / Fold change /veh ZSCAN30 (11745921_a_at) / RFU CMKLR1 (11741424_a_at) / Fold change /veh CMKLR1 (11741424_a_at) / RFU LOC101060620 /// MAPK8IP1 (11723275_at) / Fold change /veh LOC101060620 /// MAPK8IP1 (11723275_at) / RFU SPTSSB (11747773_x_at) / Fold change /veh SPTSSB (11747773_x_at) / RFU PRSS12 (11739890_at) / Fold change /veh PRSS12 (11739890_at) / RFU BIN1 (11741810_x_at) / Fold change /veh BIN1 (11741810_x_at) / RFU WNT11 (11732464_a_at) / Fold change /veh WNT11 (11732464_a_at) / RFU C10orf10 (11716521_a_at) / Fold change /veh C10orf10 (11716521_a_at) / RFU C5orf56 (11738089_at) / Fold change /veh C5orf56 (11738089_at) / RFU CYB561 (11721691_x_at) / Fold change /veh CYB561 (11721691_x_at) / RFU ANKRD19P (11752326_a_at) / Fold change /veh ANKRD19P (11752326_a_at) / RFU OR2T12 /// OR2T33 /// OR2T8 (11738714_s_at) / Fold change /veh OR2T12 /// OR2T33 /// OR2T8 (11738714_s_at) / RFU VCAN (11748164_a_at) / Fold change /veh VCAN (11748164_a_at) / RFU JSRP1 (11732532_at) / Fold change /veh JSRP1 (11732532_at) / RFU KRTAP10-11 (11738290_x_at) / Fold change /veh KRTAP10-11 (11738290_x_at) / RFU MYO3A (11730013_a_at) / Fold change /veh MYO3A (11730013_a_at) / RFU EBF3 (11725865_a_at) / Fold change /veh EBF3 (11725865_a_at) / RFU CAMK2N1 (11719241_x_at) / Fold change /veh CAMK2N1 (11719241_x_at) / RFU C5orf56 (11738088_a_at) / Fold change /veh C5orf56 (11738088_a_at) / RFU OLFML3 (11715873_a_at) / Fold change /veh OLFML3 (11715873_a_at) / RFU LOC100653217 /// NTM (11731650_a_at) / Fold change /veh LOC100653217 /// NTM (11731650_a_at) / RFU MAPK11 (11762145_a_at) / Fold change /veh MAPK11 (11762145_a_at) / RFU FIZ1 (11724087_x_at) / Fold change /veh FIZ1 (11724087_x_at) / RFU OASL (11726364_x_at) / Fold change /veh OASL (11726364_x_at) / RFU SOX15 (11748057_x_at) / Fold change /veh SOX15 (11748057_x_at) / RFU CD79A (11719716_a_at) / Fold change /veh CD79A (11719716_a_at) / RFU HIST1H1D (11736915_at) / Fold change /veh HIST1H1D (11736915_at) / RFU CASKIN2 (11723855_a_at) / Fold change /veh CASKIN2 (11723855_a_at) / RFU LOC730098 (11760151_x_at) / Fold change /veh LOC730098 (11760151_x_at) / RFU OR4N2 (11742367_at) / Fold change /veh OR4N2 (11742367_at) / RFU PRRT2 (11749266_a_at) / Fold change /veh PRRT2 (11749266_a_at) / RFU SNX32 (11753110_a_at) / Fold change /veh SNX32 (11753110_a_at) / RFU CDHR5 (11726645_a_at) / Fold change /veh CDHR5 (11726645_a_at) / RFU RCAN1 (11760418_a_at) / Fold change /veh RCAN1 (11760418_a_at) / RFU FAM167A (11723789_a_at) / Fold change /veh FAM167A (11723789_a_at) / RFU FAM26E (11764081_at) / Fold change /veh FAM26E (11764081_at) / RFU ISYNA1 (11749810_s_at) / Fold change /veh ISYNA1 (11749810_s_at) / RFU ACY1 (11761880_at) / Fold change /veh ACY1 (11761880_at) / RFU 11764098_at / Fold change /veh 11764098_at / RFU SAMD14 (11745864_x_at) / Fold change /veh SAMD14 (11745864_x_at) / RFU NPB (11741838_a_at) / Fold change /veh NPB (11741838_a_at) / RFU TMPRSS6 (11731388_a_at) / Fold change /veh TMPRSS6 (11731388_a_at) / RFU KRTAP10-2 (11738614_at) / Fold change /veh KRTAP10-2 (11738614_at) / RFU ARHGAP8 /// PRR5-ARHGAP8 (11727945_x_at) / Fold change /veh ARHGAP8 /// PRR5-ARHGAP8 (11727945_x_at) / RFU KRTAP5-7 /// NADSYN1 (11734609_at) / Fold change /veh KRTAP5-7 /// NADSYN1 (11734609_at) / RFU RASL12 (11751679_a_at) / Fold change /veh RASL12 (11751679_a_at) / RFU CDKN2B (11736163_a_at) / Fold change /veh CDKN2B (11736163_a_at) / RFU PRF1 (11729649_at) / Fold change /veh PRF1 (11729649_at) / RFU, ZNF638 /// ZNF638-IT1 / Fold change vs veh, ZNF638 /// ZNF638-IT1 / RFU, PANK3 / Fold change vs veh, PANK3 / RFU, SH3YL1 / Fold change vs veh, SH3YL1 / RFU, ZEB2 / Fold change vs veh, ZEB2 / RFU, NRIP1 / Fold change vs veh, NRIP1 / RFU, PTTG1IP / Fold change vs veh, PTTG1IP / RFU, CAPN2 / Fold change vs veh, CAPN2 / RFU, MED14 / Fold change vs veh, MED14 / RFU, SNORA58 / Fold change vs veh, SNORA58 / RFU, C1orf63 / Fold change vs veh, C1orf63 / RFU, LRRFIP1 / Fold change vs veh, LRRFIP1 / RFU, NDUFAF7 / Fold change vs veh, NDUFAF7 / RFU, SLC12A2 / Fold change vs veh, SLC12A2 / RFU, IBTK / Fold change vs veh, IBTK / RFU, ESF1 / Fold change vs veh, ESF1 / Fold change vs veh, TMEM50B / RFU, TAOK1 / Fold change vs veh, TAOK1 / RFU, ACBD3 / Fold change vs veh, ACBD3 / RFU, TMA16 / Fold change vs veh, TMA16 / RFU, RWDD3 / Fold change vs veh, RWDD3 / RFU, BCAT1 / Fold change vs veh, BCAT1 / RFU, EDEM3 / Fold change vs veh, EDEM3 / RFU, TMEM33 / Fold change vs veh, TMEM33 / RFU, WDR75 / Fold change vs veh, WDR75 / RFU, AHCTF1 / Fold change vs veh, AHCTF1 / RFU, TFRC / Fold change vs veh, TFRC / RFU, ZDHHC17 / Fold change vs veh, ZDHHC17 / RFU, NOM1 / Fold change vs veh, NOM1 / RFU, ARL8B / Fold change vs veh, ARL8B / RFU, ZBTB11 / Fold change vs veh, ZBTB11 / RFU, TAMM41 / Fold change vs veh, TAMM41 / RFU, KIAA1704 /// LOC100996395 / Fold change vs veh, KIAA1704 /// LOC100996395 / RFU, ING1 / Fold change vs veh, ING1 / RFU, TRMT61B / Fold change vs veh, TRMT61B / RFU, FUBP3 / Fold change vs veh, FUBP3 / RFU, TP53 / Fold change vs veh, TP53 / RFU, TNKS2 / Fold change vs veh, TNKS2 / RFU, ZFP14 / Fold change vs veh, ZFP14 / RFU, ACTR2 / Fold change vs veh, ACTR2 / RFU, PPP3R1 / Fold change vs veh, PPP3R1 / RFU, PIK3R1 / Fold change vs veh, PIK3R1 / RFU, HNRNPA1 / Fold change vs veh, HNRNPA1 / RFU, RNF170 / Fold change vs veh, RNF170 / RFU, ZNF28 / Fold change vs veh, ZNF28 / RFU, RNGTT / Fold change vs veh, RNGTT / RFU, OGT / Fold change vs veh, OGT / RFU, BRD1 / Fold change vs veh, BRD1 / RFU, MARS / Fold change vs veh, MARS / RFU, ZNF655 / Fold change vs veh, ZNF655 / RFU, FAHD1 / Fold change vs veh, FAHD1 / RFU, BDP1 / Fold change vs veh, BDP1 / RFU, LRRCC1 / Fold change vs veh, LRRCC1 / RFU, ARID1A / Fold change vs veh, ARID1A / RFU, ZNF146 / Fold change vs veh, ZNF146 / RFU, ZNF330 / Fold change vs veh, ZNF330 / RFU, GPN3 / Fold change vs veh, GPN3 / RFU, C9orf123 / Fold change vs veh, C9orf123 / RFU, N4BP2L2 / Fold change vs veh, N4BP2L2 / RFU, ARFIP1 / Fold change vs veh, ARFIP1 / RFU, FAM179B / Fold change vs veh, FAM179B / RFU, BCL10 / Fold change vs veh, BCL10 / RFU, UHRF1BP1L / Fold change vs veh, UHRF1BP1L / RFU, BET1 / Fold change vs veh, BET1 / RFU, CNOT2 / Fold change vs veh, CNOT2 / RFU, ZNF268 / Fold change vs veh, ZNF268 / Fold change vs veh, ZNF507 / RFU, DGCR2 / Fold change vs veh, DGCR2 / RFU, WDSUB1 / Fold change vs veh, WDSUB1 / Fold change vs veh, HSP90B1 /// MIR3652 / RFU, ADSS / Fold change vs veh, ADSS / RFU, GK / Fold change vs veh, GK / RFU, ZNF148 / Fold change vs veh, ZNF148 / RFU, TAF9 / Fold change vs veh, TAF9 / RFU, SLC1A5 / Fold change vs veh, SLC1A5 / RFU, SLMO2 / Fold change vs veh, SLMO2 / RFU, ABCC4 / Fold change vs veh, ABCC4 / RFU, LOC101060439 /// RAP1B / Fold change vs veh, LOC101060439 /// RAP1B / RFU, RFX7 / Fold change vs veh, RFX7 / RFU, GTPBP10 / Fold change vs veh, GTPBP10 / RFU, CNEP1R1 / Fold change vs veh, CNEP1R1 / RFU, BIVM-ERCC5 /// ERCC5 / Fold change vs veh, BIVM-ERCC5 /// ERCC5 / RFU, ILF3 / Fold change vs veh, ILF3 / RFU 11762660_at / Fold change /veh 11762660_at / RFU VCAN (11757783_s_at) / Fold change /veh VCAN (11757783_s_at) / RFU DDX43 (11728927_at) / Fold change /veh DDX43 (11728927_at) / RFU KRT8 (11758188_x_at) / Fold change /veh KRT8 (11758188_x_at) / RFU NKD1 (11759106_at) / Fold change /veh NKD1 (11759106_at) / RFU SRD5A1 (11742802_a_at) / Fold change /veh SRD5A1 (11742802_a_at) / RFU TPSAB1 /// TPSB2 (11721975_s_at) / Fold change /veh TPSAB1 /// TPSB2 (11721975_s_at) / RFU GSTM3 (11746129_a_at) / Fold change /veh GSTM3 (11746129_a_at) / RFU IL23R (11737362_x_at) / Fold change /veh IL23R (11737362_x_at) / RFU TMEM51 (11727254_a_at) / Fold change /veh TMEM51 (11727254_a_at) / RFU PIWIL2 (11732686_x_at) / Fold change /veh PIWIL2 (11732686_x_at) / RFU ORM1 (11744905_x_at) / Fold change /veh ORM1 (11744905_x_at) / RFU CCDC152 (11743942_at) / Fold change /veh CCDC152 (11743942_at) / RFU ECM1 (11717891_a_at) / Fold change /veh ECM1 (11717891_a_at) / RFU IL23R (11748794_a_at) / Fold change /veh IL23R (11748794_a_at) / RFU TNFAIP8L3 (11732012_x_at) / Fold change /veh TNFAIP8L3 (11732012_x_at) / RFU MBOAT4 (11741988_at) / Fold change /veh MBOAT4 (11741988_at) / RFU 11764193_at / Fold change /veh 11764193_at / RFU TMEM53 (11763286_at) / Fold change /veh TMEM53 (11763286_at) / RFU MAGEB2 (11727129_at) / Fold change /veh MAGEB2 (11727129_at) / RFU TMEM200A (11744735_a_at) / Fold change /veh TMEM200A (11744735_a_at) / RFU CCDC152 (11751479_a_at) / Fold change /veh CCDC152 (11751479_a_at) / RFU FAM211A (11726209_a_at) / Fold change /veh FAM211A (11726209_a_at) / RFU RGS16 (11746705_a_at) / Fold change /veh RGS16 (11746705_a_at) / RFU VCAN (11755009_s_at) / Fold change /veh VCAN (11755009_s_at) / RFU RHOB (11743442_s_at) / Fold change /veh RHOB (11743442_s_at) / RFU RGS16 (11720943_a_at) / Fold change /veh RGS16 (11720943_a_at) / RFU RGS16 (11720944_at) / Fold change /veh RGS16 (11720944_at) / RFU, VPS4B / Fold change vs veh, VPS4B / RFU, CREB1 / Fold change vs veh, CREB1 / RFU, DNAJC13 / Fold change vs veh, DNAJC13 / RFU, GNAQ / Fold change vs veh, GNAQ / RFU, CDK5R1 / Fold change vs veh, CDK5R1 / RFU, ZRANB3 / Fold change vs veh, ZRANB3 / RFU, CUL4A / Fold change vs veh, CUL4A / RFU, CCNY / Fold change vs veh, CCNY / RFU, UFL1 / Fold change vs veh, UFL1 / RFU, COG3 / Fold change vs veh, COG3 / RFU, DIAPH2 / Fold change vs veh, DIAPH2 / RFU, SKA2 / Fold change vs veh, SKA2 / RFU, AFF3 / Fold change vs veh, AFF3 / RFU, LMF1 / Fold change vs veh, LMF1 / RFU, IPO11 / Fold change vs veh, IPO11 / RFU, DFFB / Fold change vs veh, DFFB / RFU, FOXP1 / Fold change vs veh, FOXP1 / RFU, CARD8 / Fold change vs veh, CARD8 / RFU, STRN3 / Fold change vs veh, STRN3 / RFU, ADK / Fold change vs veh, ADK / RFU, RASSF2 / Fold change vs veh, RASSF2 / RFU, WIPF1 / Fold change vs veh, WIPF1 / RFU, LARP1B / Fold change vs veh, LARP1B / RFU, RASA1 / Fold change vs veh, RASA1 / RFU, RB1 / Fold change vs veh, RB1 / RFU, PPFIA1 / Fold change vs veh, PPFIA1 / RFU, MAT2A / Fold change vs veh, MAT2A / RFU, CCT5 / Fold change vs veh, CCT5 / RFU, WDR92 / Fold change vs veh, WDR92 / RFU, CUX1 / Fold change vs veh, CUX1 / RFU, TTC7A / Fold change vs veh, TTC7A / RFU, TMEM135 / Fold change vs veh, TMEM135 / RFU, DEPTOR / Fold change vs veh, DEPTOR / RFU, CPM / Fold change vs veh, CPM / RFU, DNAJB6 / Fold change vs veh, DNAJB6 / RFU, CACNA2D3 / Fold change vs veh, CACNA2D3 / RFU, DTX4 / Fold change vs veh, DTX4 / RFU, TFCP2 / Fold change vs veh, TFCP2 / RFU, GMCL1 /// GMCL1P1 / Fold change vs veh, GMCL1 /// GMCL1P1 / RFU, AEBP2 / Fold change vs veh, AEBP2 / RFU, SNHG1 /// SNORD22 /// SNORD25 /// SNORD26 /// SNORD27 /// SNORD28 /// SNORD29 /// SNORD31 / Fold change vs veh, SNHG1 /// SNORD22 /// SNORD25 /// SNORD26 /// SNORD27 /// SNORD28 /// SNORD29 /// SNORD31 / Fold change (Aza/veh), C12orf56 (ProbeSet 11735607_a_at) / Fold change (ACY-1035/veh), C12orf56 (ProbeSet 11735607_a_at) / Fold change (Aza/veh), FGFR1OP (ProbeSet 11751329_s_at) / Fold change (ACY-1035/veh), FGFR1OP (ProbeSet 11751329_s_at) / Fold change (Aza/veh), VPS36 (ProbeSet 11739960_a_at) / Fold change (ACY-1035/veh), VPS36 (ProbeSet 11739960_a_at) / RFU SYPL1 (11715823_x_at) / Fold change /veh SYPL1 (11715823_x_at) / RFU IGFBP7 (11715501_s_at) / Fold change /veh IGFBP7 (11715501_s_at) / RFU REEP3 (11722064_at) / Fold change /veh REEP3 (11722064_at) / RFU IGLL1 (11728026_x_at) / Fold change /veh IGLL1 (11728026_x_at): dose or concentration left out as unconfirmed
Conditions: ProbeSet 11732306_x_at; LIST D

## Nc1ncn([C@@H]2O[C@H](CO)[C@@H](O)[C@H]2O)c(=O)n1 [azacitidine]
  Fold change vs veh, CREB1: 0.82
